The text below walks through data of PubChem BioAssay (NCI).

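Dose response: 5 concentrations. Exposure: 48 h. Format: 96-well plates. Endpoint: linear interpolation; highest concentration if not reached. At the GI50, growth is halved. TGI: total growth inhibition.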

Among the test systems are HT29 colon; SN12C renal; CAKI-1 renal; 786-0 renal; MOLT-4 leukemia; EKVX NSCLC; NCI-H460 lung; SF-295 CNS; OVCAR-4 ovarian.
Assay in all cases: growth of human tumour cells (NCI), 48 h

As to `O=Cc1ccc2c(c1-c1c(C=O)ccc3c1OCO3)OCO2`, the TGI with HT29 colon, with SN12C renal, with CAKI-1 renal, in the experiment on 786-0 renal, with MOLT-4 leukemia and in the experiment with EKVX NSCLC was more than 100 µM throughout. In addition, the TGI with NCI-H460 lung, in the experiment on SF-295 CNS and in the experiment on OVCAR-4 ovarian was more than 100 µM each time.

As for `CC(=O)[O][Ga]([Br])[O]C(C)=O`, the GI50 in the experiment with HT29 colon, in the experiment on SN12C renal, in the experiment on CAKI-1 renal, with 786-0 renal, in the experiment on MOLT-4 leukemia and with NCI-H460 lung was more than 100 µM in each case. The GI50 with SF-295 CNS and in the experiment with OVCAR-4 ovarian was more than 100 µM each time. For the same molecule, the TGI in the experiment on HT29 colon, in the experiment with SN12C renal, in the experiment on CAKI-1 renal, in the experiment on 786-0 renal, in the experiment with MOLT-4 leukemia and in the experiment with NCI-H460 lung was more than 100 µM throughout. For the same molecule, the TGI in the experiment with SF-295 CNS and in the experiment with OVCAR-4 ovarian was more than 100 µM each time.

Regarding `CCCO/S(=N\S(=O)(=O)c1ccccc1)c1ccccc1[N+](=O)[O-]` (centres undefined), the TGI in the experiment on HT29 colon, with SN12C renal, in the experiment with CAKI-1 renal, with 786-0 renal, in the experiment with MOLT-4 leukemia and in the experiment on EKVX NSCLC was more than 100 µM each time. Also, the TGI with NCI-H460 lung, in the experiment with SF-295 CNS and in the experiment on OVCAR-4 ovarian was more than 100 µM in each case.

For the molecule `N#CC(C(=O)C(=O)Nc1ccc(Cl)cc1)c1ccccc1` (centres undefined), the TGI in the experiment on HT29 colon, in the experiment with SN12C renal, with CAKI-1 renal, with 786-0 renal, with MOLT-4 leukemia and in the experiment on EKVX NSCLC was more than 100 µM in each case. Moreover, the TGI in the experiment with NCI-H460 lung, in the experiment with SF-295 CNS and in the experiment with OVCAR-4 ovarian was more than 100 µM throughout.

As to `CC(C)N(CCn1c2c3ccccc3ccc2c2oc(=O)c3ccccc3c21)C(C)C`, the TGI in the experiment on HT29 colon, with SN12C renal, in the experiment with CAKI-1 renal, in the experiment on 786-0 renal, in the experiment on MOLT-4 leukemia and in the experiment on EKVX NSCLC was more than 100 µM each time. The values for the TGI with NCI-H460 lung, with SF-295 CNS and in the experiment on OVCAR-4 ovarian were more than 100 µM, more than 95.1 µM and more than 100 µM, respectively.

On to `CCOP(=O)(OCC)OC1C=CC2CCC1C2` (centres undefined), for which the TGI with HT29 colon, in the experiment with SN12C renal, with CAKI-1 renal, in the experiment on 786-0 renal, with MOLT-4 leukemia and in the experiment on EKVX NSCLC was more than 100 µM each time. Further, the TGI in the experiment with NCI-H460 lung, in the experiment with SF-295 CNS and with OVCAR-4 ovarian was more than 100 µM each time.

For the molecule `Cc1cc(NS(=O)(=O)c2ccc(Nc3c4ccccc4nc4c(C(=O)N5CCN(CCO)CC5)ccc(Cl)c34)cc2)no1`, the TGI in the experiment on HT29 colon, in the experiment with SN12C renal, in the experiment with CAKI-1 renal, in the experiment with 786-0 renal, in the experiment on MOLT-4 leukemia and in the experiment with NCI-H460 lung was more than 100 µM throughout. Further, the TGI in the experiment with SF-295 CNS and with OVCAR-4 ovarian was more than 100 µM throughout.

For `S=c1[nH]c(=S)c2nnn(-c3ccccc3)c2[nH]1`, the TGI with HT29 colon, in the experiment with SN12C renal, in the experiment on CAKI-1 renal, in the experiment with 786-0 renal, in the experiment with MOLT-4 leukemia and in the experiment on EKVX NSCLC was more than 100 µM throughout. For the same molecule, the TGI in the experiment on NCI-H460 lung is more than 100 µM.

As for `COC(=O)/C=C1\CCC(C)O1` (centres undefined), the TGI in the experiment on HT29 colon, in the experiment with SN12C renal, in the experiment on CAKI-1 renal, with 786-0 renal, in the experiment with MOLT-4 leukemia and in the experiment on EKVX NSCLC was more than 100 µM throughout. The TGI with NCI-H460 lung, in the experiment on SF-295 CNS and in the experiment with OVCAR-4 ovarian was more than 100 µM throughout.

Regarding `CC(C)C(=O)Nc1nc2c(ncn2C2OC(CO)C(O)C2O)c(=O)[nH]1` (centres undefined), the TGI in the experiment on HT29 colon, with SN12C renal, in the experiment on CAKI-1 renal, with 786-0 renal, in the experiment on MOLT-4 leukemia and in the experiment on EKVX NSCLC was more than 100 µM each time. For the same molecule, the TGI in the experiment with NCI-H460 lung, in the experiment with SF-295 CNS and in the experiment on OVCAR-4 ovarian was more than 100 µM in each case.

In the case of `Cc1cc(S(=O)(=O)O)c(NC(=O)C(=O)Cc2cc(=O)oc3cc(O)ccc23)cc1Cl`, the TGI in the experiment with HT29 colon, in the experiment with SN12C renal, in the experiment with CAKI-1 renal, in the experiment with 786-0 renal, in the experiment with MOLT-4 leukemia and with EKVX NSCLC was more than 100 µM in each case. The TGI with NCI-H460 lung, in the experiment on SF-295 CNS and in the experiment on OVCAR-4 ovarian was more than 100 µM throughout.

As to `CC1COC(C)(C)P(=O)(c2ccccc2)C1` (centres undefined), the TGI in the experiment with HT29 colon, in the experiment on SN12C renal, in the experiment with 786-0 renal, in the experiment on MOLT-4 leukemia, with EKVX NSCLC and in the experiment with NCI-H460 lung was more than 100 µM each time. In the experiment on SF-295 CNS, this molecule came in with a TGI of more than 100 µM.

On to `CNS(=O)(=O)NNS(=O)(=O)c1ccc(Br)cc1`, for which the TGI with HT29 colon, with CAKI-1 renal, with 786-0 renal, in the experiment with EKVX NSCLC, in the experiment on NCI-H460 lung and in the experiment with OVCAR-4 ovarian was more than 100 µM each time.

`CC(C)C(=O)NS(=O)(=O)c1ccccc1`: the TGI in the experiment with HT29 colon, in the experiment with SN12C renal, in the experiment with CAKI-1 renal, in the experiment with 786-0 renal, in the experiment with MOLT-4 leukemia and in the experiment on EKVX NSCLC was more than 100 µM each time. Besides, the TGI in the experiment on NCI-H460 lung, with SF-295 CNS and in the experiment on OVCAR-4 ovarian was more than 100 µM in each case.

Take `CCC1CCc2c(c(=O)oc3c2cc(OC)c2cccc(OC)c23)C1` (centres undefined): the TGI with HT29 colon, in the experiment on SN12C renal, in the experiment with CAKI-1 renal, in the experiment with 786-0 renal, in the experiment with MOLT-4 leukemia and with EKVX NSCLC was more than 100 µM each time. The TGI in the experiment with NCI-H460 lung, with SF-295 CNS and with OVCAR-4 ovarian was more than 100 µM throughout.
